Laboratory results as given in patent US6090828A, “5-aryleheteroarylalkyl-1,3,5-trisubstituted-1,2,4-triazole compounds for treatment of circulatory disorders” (priority 1997, dated 2000).
Like-named read-outs stand apart in the source and are kept apart here.

How the values were obtained:
[1] = target: smooth muscle angiotensin II receptor; test: Assay A: Angiotensin II Binding Activity; details: 50% displacement of specifically bound 125I-AII; rat uterine membranes; pH 7.5; 25° C., 60 min
Protocol: Compounds of the invention were tested for ability to bind to the smooth muscle angiotensin II receptor using a rat uterine membrane preparation. […] Rat uterine membranes were prepared from fresh tissue. All procedures were carried out at 4° C. Uteri were stripped of fat and homogenized in phosphate-buffered saline at pH 7.4 containing 5 mM EDTA. The homogenate was centrifuged at 1500×g for 20 min., and the supernatant was recentrifuged at 100,000×g for 60 min. The pellet was resuspended in buffer consisting of 2 mM EDTA and 50 mM Tris-HCl (pH 7.5) to a final protein concentration of 4 mg/ml. […] The reaction was initiated by the addition of membrane protein and the mixture was incubated at 25° C. for 60 min. The incubation was terminated with ice-cold 50 mM Tris-HCl (pH 7.5) and the mixture was filtered to separate membrane-bound labelled peptide from the free ligand. The incubation tube and filter were washed with ice-cold buffer. Filters were assayed for radioactivity in a Micromedic gamma counter. Nonspecific binding was defined as binding in the presence of 10 μM of unlabelled AII. Specific binding was calculated as total binding minus nonspecific binding. […] Binding data were analyzed by a nonlinear least-squares curve fitting program.

rabbit aortic rings = target: T1, rabbit aortic rings (Oryctolagus cuniculus, UniProt P34976); test: Assay B: In Vitro Vascular Smooth Muscle Response for AII; parameters: species or system rabbit (male New Zealand white); details: rabbit aorta rings, two rabbits per antagonist, antagonist 10^-5 M, 5 minutes, AII contraction, Schild
T1 construct: The thoracic aorta was removed, cleaned of adherent fat and connective tissue and then cut into 3-mm ring segments; from tissue; host or cells: rabbit thoracic aorta rings, endothelium removed
T1 sequence (P34976 1-359): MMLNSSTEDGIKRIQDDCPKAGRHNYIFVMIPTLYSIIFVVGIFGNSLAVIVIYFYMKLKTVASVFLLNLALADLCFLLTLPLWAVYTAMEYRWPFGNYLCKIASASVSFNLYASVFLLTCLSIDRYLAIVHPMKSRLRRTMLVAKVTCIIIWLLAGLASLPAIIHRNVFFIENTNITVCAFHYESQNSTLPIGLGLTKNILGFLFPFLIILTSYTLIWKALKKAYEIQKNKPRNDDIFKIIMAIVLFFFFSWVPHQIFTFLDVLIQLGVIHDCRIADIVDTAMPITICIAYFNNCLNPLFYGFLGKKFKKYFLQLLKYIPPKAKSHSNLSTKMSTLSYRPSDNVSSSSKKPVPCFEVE
Protocol: The compounds of the invention were tested for antagonist activity in rabbit aortic rings. Male New Zealand white rabbits (2-2.5 kg) were sacrificed using an overdose of pentobarbital and exsanguinated via the carotid arteries. The thoracic aorta was removed, cleaned of adherent fat and connective tissue and then cut into 3-mm ring segments. The endothelium was removed from the rings by gently sliding a rolled-up piece of filter paper into the vessel lumen. The rings were then mounted in a water-jacketed tissue bath, maintained at 37° C., between moveable and fixed ends of a stainless steel wire with the moveable end attached to an FT03 Grass transducer coupled to a Model 7D Grass Polygraph for recording isometric force responses. […] The preparations were equilibrated for one hour before approximately one gram of passive tension was placed on the rings. Angiotensin II concentration-response curves were then recorded (3×10^-10 to 1×10^-5 M). Each concentration of AII was allowed to elicit its maximal contraction, and then AII was washed out repeatedly for 30 minutes before rechallenging with a higher concentration of AII. Aorta rings were exposed to the test antagonist at 10^-5 M for 5 minutes before challenging with AII. Adjacent segments of the same aorta ring were used for all concentration-response curves in the presence or absence of the test antagonist. […] The pA2 value is the concentration of the antagonist which increases the EC50 value for AII by a factor of two. Each test antagonist was evaluated in aorta rings from two rabbits.

pressor response to AII = test: Assay C: In Vivo Intragastric Pressor Assay Response for AII Antagonists; parameters: species or system rat (male Sprague-Dawley); details: 3 mg/kg (i.g.), AII 30 ng/kg i.v. bolus; for Duration: followed to 180 minutes; for inhibition in vivo at 3 mg/kg: Rattus norvegicus, po
Protocol: The catheters were tunneled subcutaneously to exit dorsally, posterior to the head and between the scapulae. The catheters were filled with heparin (1000 units/ml of saline). The rats were returned to their cage and allowed regular rat chow and water ad libitum. After full recovery from surgery (3-4 days), rats were placed in Lucite holders and the arterial line was connected to a pressure transducer. Arterial pressure was recorded on a Gould polygraph (mmHg). Angiotensin II was administered as a 30 ng/kg bolus via the venous catheter delivered in a 50 μl volume with a 0.2 ml saline flush. The pressor response in mm Hg was measured by the difference from pre-injection arterial pressure to the maximum pressure achieved. The AII injection was repeated every 10 minutes until three consecutive injections yielded responses within 4 mmHg of each other. These three responses were then averaged and represented the control response to AII. The test compound was suspended in 0.5% methylcellulose in water and was administered by gavage. The volume administered was 2 ml/kg body weight. The standard dose was 3 mg/kg. Angiotensin II bolus injections were given at 30, 45, 60, 75, 120, 150, and 180 minutes after gavage. The pressor response to AII was measured at each time point. The rats were then returned to their cage for future testing. A minimum of 3 days was allowed between tests. Percent inhibition was calculated for each time point following gavage by the following formula: [(Control Response-Response at time point)/Control Response]×100.

[2] = read-out: pA2 (first of two values) (converted)
[3] = read-out: pA2 (second of two values) (converted)

Compound	IC50 [1] [nM]	Kb (rabbit aortic rings; [2]) [nM]	Kb (rabbit aortic rings; [3]) [nM]	Duration (pressor response to AII) [min]	inhibition in vivo at 3 mg/kg (pressor response to AII; conscious rats) [%]	pA2 (first of two values) (rabbit aortic rings)	pA2 (second of two values) (rabbit aortic rings)	Inhibition (pressor response to AII; conscious rats) [%]
5-[2-[5-[(1-butyl-3-propyl-1H-1,2,4-triazol-5-yl)methyl]-2-pyridinyl]phenyl]-1H-tetrazole [Example 3]	150			140		7.46	7.23	10
CCCn1nc(C(F)F)nc1Cc1ccc(-c2ccccc2-c2nnn[nH]2)nc1 [Example 13, 5-[2-[5-[(1-propyl-3-difluoromethyl-1H-1,2,4-triazol-5-yl)methyl]-2-pyridinyl]phenyl]-1H-tetrazole]	380	617	282					
CCCCn1nc(C(C)(F)F)nc1Cc1ccc(-c2ccccc2-c2nnn[nH]2)nc1 [Example 17, 5-[2-[5-[[1-butyl-3-(1,1-difluoroethyl)-1H-1,2,4-triazol-5-yl]methyl]-2-pyridinyl]phenyl]-1H-tetrazole]	160	26.9	18.2					
CCCCc1nc(Cc2ccc(-c3ccccc3-c3nnn[nH]3)nc2)n(CC(CC)CC)n1 [Example 8, 5-[2-[5-[[1-(2-ethylbutyl)-3-butyl-1H-1,2,4-triazol-5-yl]methyl]-2-pyridinyl]phenyl]-1H-tetrazole]	530		603					
CCCn1nc(C(OC)OC)nc1Cc1ccc(-c2ccccc2-c2nnn[nH]2)nc1 [Example 25, 5-[2-[5-[[1-propyl-3-dimethoxymethyl-1H-1,2,4-triazol-5-yl]methyl]-2-pyridinyl]phenyl]-1H-tetrazole]	180	51.3	95.5					
CCCCc1nc(Cc2ccc(-c3ccccc3-c3nnn[nH]3)nc2)n(CC(C)(C)C)n1 [Example 35, 5-[2-[5-[(1-neopentyl-3-butyl-1H-1,2,4-triazol-5-yl)methyl]-2-pyridinyl]phenyl]-1H-tetrazole]	1100	166						
CCCCn1nc(C(F)(F)CC)nc1Cc1ccc(-c2ccccc2-c2nnn[nH]2)nc1 [Example 19, 5-[2-[5-[[1-butyl-3-(1,1-difluoropropyl)-1H-1,2,4-triazol-5-yl]methyl]-2-pyridinyl]phenyl]-1H-tetrazole]	420	20.4	26.3					
CCCn1nc(C(C)(F)F)nc1Cc1ccc(-c2ccccc2-c2nnn[nH]2)nc1 [Example 16, 5-[2-[5-[[1-propyl-3-(1,1-difluoroethyl)-1H-1,2,4-triazol-5-yl]methyl]-2-pyridinyl]phenyl]-1H-tetrazole]	410	126	66.1					

The remaining compounds from weak to strong by IC50 [1], led by results:

IC50 [1] [nM]	Kb (rabbit aortic rings; [2]) [nM]	Kb (rabbit aortic rings; [3]) [nM]	Compound	Duration (pressor response to AII) [min]	inhibition in vivo at 3 mg/kg (pressor response to AII; conscious rats) [%]	pA2 (first of two values) (rabbit aortic rings)	pA2 (second of two values) (rabbit aortic rings)	Inhibition (pressor response to AII; conscious rats) [%]
150	16.6	26.3	CCCn1nc(C(F)(F)CCC)nc1Cc1ccc(-c2ccccc2-c2nnn[nH]2)nc1 [Example 20, 5-[2-[5-[[1-propyl-3-(1,1-difluorobutyl)-1H-1,2,4-triazol-5-yl]methyl]-2-pyridinyl]phenyl]-1H-tetrazole]	180	15			
88	28.8	33.9	CCCCn1nc(C(OC(C)C)OC(C)C)nc1Cc1ccc(-c2ccccc2-c2nnn[nH]2)nc1 [Example 29, 5-[2-[5-[[1-butyl-3-diisopropoxymethyl-1H-1,2,4-triazol-5-yl]methyl]-2-pyridinyl]phenyl]-1H-tetrazole]					
28	30.2	77.6	CCCCn1nc(C(=O)N(C)C(C)(C)C)nc1Cc1ccc(-c2ccccc2-c2nnn[nH]2)nc1 [Example 22, 5-[2-[5-[[1-butyl-3-(N-methyl-N-tertbutylamido)-1H-1,2,4-triazol-5-yl]methyl]-2-pyridinyl]phenyl]-1H-tetrazole]	0	0			
27			CCCCn1nc(C(OC)OC)nc1Cc1ccc(-c2ccccc2-c2nnn[nH]2)nc1 [Example 26, 5-[2-[5-[[1-butyl-3-dimethoxymethyl-1H-1,2,4-triazol-5-yl]methyl]-2-pyridinyl]phenyl]-1H-tetrazole]	0	0			
26	83.2	17	CCCCn1nc(C(F)(F)CCC)nc1Cc1ccc(-c2ccccc2-c2nnn[nH]2)nc1 [Example 21, 5-[2-[5-[[1-butyl-3-(1,1-difluorobutyl)-1H-1,2,4-triazol-5-yl]methyl]-2-pyridinyl]phenyl]-1H-tetrazole]	> 180	40			
26	38.9	14.1	CCCCn1nc(C(OCCC)OCCC)nc1Cc1ccc(-c2ccccc2-c2nnn[nH]2)nc1 [Example 28, 5-[2-[5-[[1-butyl-3-dipropoxymethyl-1H-1,2,4-triazol-5-yl]methyl]-2-pyridinyl]phenyl]-1H-tetrazole]					
21	20	75.9	CCCCn1nc(C2OCC(C)(C)CO2)nc1Cc1ccc(-c2ccccc2-c2nnn[nH]2)nc1 [Example 32, 5-[2-[5-[[1-butyl-3-[2-(5,5-dimethyl-1,3-dioxanyl)]-1H-1,2,4-triazol-5-yl]methyl]-2-pyridinyl]phenyl]-1H-tetrazole]	180	20			
17	17.4	10.7	CCCCn1nc(CCc2ccccc2)nc1Cc1ccc(-c2ccccc2-c2nnn[nH]2)nc1 [Example 2, 5-[2-[5-[[1-butyl-3-(2-phenylethyl)-1H-1,2,4-triazol-5-yl]methyl]-2-pyridinyl]phenyl]-1H-tetrazole]					
14	9.33	15.8	CCCCc1nc(Cc2ccc(-c3ccccc3-c3nnn[nH]3)nc2)n(CCCC)n1 [Example 1, 5-[2-[5-[(1,3-dibutyl-1H,1,2,4-triazol-5-yl)methyl]-2-pyridinyl]phenyl]-1H-tetrazole]	> 180	25			
13	5.01	20.4	CCCCn1nc(CCc2cccs2)nc1Cc1ccc(-c2ccccc2-c2nnn[nH]2)nc1 [Example 4, 5-[2-[5-[[1-butyl-3-[2-(2-thienyl)ethyl]-1H-1,2,4-triazol-5-yl]methyl]-2-pyridinyl]phenyl]-1H-tetrazole]	> 180	25			
